According to patent US20140179664A1, “Heterocyclyl Pyrimidine Analogues As JAK Inhibitors” (Cellzome Limited, priority 2011, published 2014):

Experiments:
Format in all cases: binding
TYK2 = biological target: T1, TYK2 (Homo sapiens, UniProt P29597); experiment: Kinobeads assay, TYK2; details: mixed Molt4/Ramos lysate, read-out: Inhibition values (IC50) TYK2
T1 construct: endogenous in cells; host or cells: Molt4 (ATCC CRL-1582) and Ramos (ATCC CRL-1596), mixed lysate 1:2
How it was run: (§1)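 Mixed Molt4/Ramos lysate (1:2, 10 mg/mL protein) was incubated 3 h in the cold with the immobilized aminopyrido-pyrimidine affinity matrix and compound, 9-step 1:3 dilutions. Bead-bound kinases were eluted and quantified by antibody dot blot with infrared detection. IC50s are from dose-response curves.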

JAK1 = biological target: T2, JAK1 (Homo sapiens, UniProt P23458); experiment: Kinobeads assay, JAK1; details: mixed Molt4/Ramos lysate, read-out: Inhibition values (IC50) JAK1
T2 construct: endogenous in cells; host or cells: Molt4 (ATCC CRL-1582) and Ramos (ATCC CRL-1596), mixed lysate 1:2
T2 sequence (P23458 whole entry): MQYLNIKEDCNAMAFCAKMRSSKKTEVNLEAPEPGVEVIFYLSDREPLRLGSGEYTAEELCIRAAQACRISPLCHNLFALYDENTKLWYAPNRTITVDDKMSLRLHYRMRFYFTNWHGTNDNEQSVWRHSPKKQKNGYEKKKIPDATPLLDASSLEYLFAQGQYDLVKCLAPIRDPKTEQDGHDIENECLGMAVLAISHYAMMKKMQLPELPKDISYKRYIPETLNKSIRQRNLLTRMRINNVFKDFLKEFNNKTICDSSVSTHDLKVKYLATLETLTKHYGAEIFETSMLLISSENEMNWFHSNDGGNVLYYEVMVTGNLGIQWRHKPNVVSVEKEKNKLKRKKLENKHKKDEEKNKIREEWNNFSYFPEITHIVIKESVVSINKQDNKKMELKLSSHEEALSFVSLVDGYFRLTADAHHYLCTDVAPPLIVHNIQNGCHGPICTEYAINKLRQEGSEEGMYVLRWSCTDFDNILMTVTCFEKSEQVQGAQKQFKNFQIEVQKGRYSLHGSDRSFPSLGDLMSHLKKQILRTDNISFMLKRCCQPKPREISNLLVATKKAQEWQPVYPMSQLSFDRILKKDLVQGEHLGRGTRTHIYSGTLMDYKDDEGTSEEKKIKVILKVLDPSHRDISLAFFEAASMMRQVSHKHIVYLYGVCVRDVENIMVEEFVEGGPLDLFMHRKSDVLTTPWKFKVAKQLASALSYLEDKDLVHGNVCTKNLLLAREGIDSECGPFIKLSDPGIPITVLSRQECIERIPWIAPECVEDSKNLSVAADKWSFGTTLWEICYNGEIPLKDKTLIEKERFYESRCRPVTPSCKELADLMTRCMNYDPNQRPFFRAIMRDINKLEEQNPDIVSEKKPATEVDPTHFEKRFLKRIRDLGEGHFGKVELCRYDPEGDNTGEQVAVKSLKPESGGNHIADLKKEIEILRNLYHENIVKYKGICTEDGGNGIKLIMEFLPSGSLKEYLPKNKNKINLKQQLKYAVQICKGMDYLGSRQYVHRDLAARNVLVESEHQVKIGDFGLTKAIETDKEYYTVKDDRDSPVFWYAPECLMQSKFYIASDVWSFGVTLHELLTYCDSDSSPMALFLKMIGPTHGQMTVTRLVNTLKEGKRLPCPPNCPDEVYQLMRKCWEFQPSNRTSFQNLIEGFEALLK
How it was run: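 Mixed Molt4/Ramos cell lysate (1:2) was incubated 3 hours in the cold with kinobeads and a 9-step 1:3 compound dilution series. The no-compound control carried 2% DMSO. Bead-bound JAK1 was eluted, detected by antibody dot blot with infrared fluorescence, and IC50 derived from dose-response curves.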

JAK2 = biological target: T3, JAK2 (Homo sapiens, UniProt O60674); experiment: Kinobeads assay, JAK2; details: mixed Molt4/Ramos lysate, read-out: Inhibition values (IC50) JAK2
T3 construct: endogenous in cells; host or cells: Molt4 (ATCC CRL-1582) and Ramos (ATCC CRL-1596), mixed lysate 1:2
T3 sequence (O60674 whole entry): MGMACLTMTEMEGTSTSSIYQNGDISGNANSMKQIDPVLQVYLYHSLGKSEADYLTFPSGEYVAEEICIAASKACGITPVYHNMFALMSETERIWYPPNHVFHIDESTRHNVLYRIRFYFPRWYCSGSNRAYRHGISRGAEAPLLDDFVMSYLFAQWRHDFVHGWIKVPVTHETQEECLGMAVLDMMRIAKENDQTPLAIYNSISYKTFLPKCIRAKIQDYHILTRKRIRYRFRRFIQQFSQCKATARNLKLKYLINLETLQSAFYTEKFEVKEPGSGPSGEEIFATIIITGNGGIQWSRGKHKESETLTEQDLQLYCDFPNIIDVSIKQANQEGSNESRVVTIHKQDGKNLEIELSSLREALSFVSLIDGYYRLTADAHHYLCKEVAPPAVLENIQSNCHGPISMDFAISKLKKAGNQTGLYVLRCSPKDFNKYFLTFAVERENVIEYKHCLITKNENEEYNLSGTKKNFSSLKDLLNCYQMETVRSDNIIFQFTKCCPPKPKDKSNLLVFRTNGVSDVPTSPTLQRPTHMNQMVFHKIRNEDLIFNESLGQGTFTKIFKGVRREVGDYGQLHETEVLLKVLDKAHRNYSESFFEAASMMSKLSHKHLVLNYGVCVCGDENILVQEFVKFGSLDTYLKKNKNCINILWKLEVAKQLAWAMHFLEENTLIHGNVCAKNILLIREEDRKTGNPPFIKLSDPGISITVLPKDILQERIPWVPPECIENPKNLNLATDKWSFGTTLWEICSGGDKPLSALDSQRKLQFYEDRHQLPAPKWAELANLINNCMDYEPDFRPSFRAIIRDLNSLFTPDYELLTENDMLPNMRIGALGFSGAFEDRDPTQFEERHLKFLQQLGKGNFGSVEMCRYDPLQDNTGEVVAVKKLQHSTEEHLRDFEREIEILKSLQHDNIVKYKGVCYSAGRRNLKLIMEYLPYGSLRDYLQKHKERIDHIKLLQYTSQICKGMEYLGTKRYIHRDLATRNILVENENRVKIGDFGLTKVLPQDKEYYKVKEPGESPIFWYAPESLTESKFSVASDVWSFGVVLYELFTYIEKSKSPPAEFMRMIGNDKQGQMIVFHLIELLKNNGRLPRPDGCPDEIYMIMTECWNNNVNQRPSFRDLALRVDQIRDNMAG
How it was run: as §1

T1 sequence (P29597 whole entry): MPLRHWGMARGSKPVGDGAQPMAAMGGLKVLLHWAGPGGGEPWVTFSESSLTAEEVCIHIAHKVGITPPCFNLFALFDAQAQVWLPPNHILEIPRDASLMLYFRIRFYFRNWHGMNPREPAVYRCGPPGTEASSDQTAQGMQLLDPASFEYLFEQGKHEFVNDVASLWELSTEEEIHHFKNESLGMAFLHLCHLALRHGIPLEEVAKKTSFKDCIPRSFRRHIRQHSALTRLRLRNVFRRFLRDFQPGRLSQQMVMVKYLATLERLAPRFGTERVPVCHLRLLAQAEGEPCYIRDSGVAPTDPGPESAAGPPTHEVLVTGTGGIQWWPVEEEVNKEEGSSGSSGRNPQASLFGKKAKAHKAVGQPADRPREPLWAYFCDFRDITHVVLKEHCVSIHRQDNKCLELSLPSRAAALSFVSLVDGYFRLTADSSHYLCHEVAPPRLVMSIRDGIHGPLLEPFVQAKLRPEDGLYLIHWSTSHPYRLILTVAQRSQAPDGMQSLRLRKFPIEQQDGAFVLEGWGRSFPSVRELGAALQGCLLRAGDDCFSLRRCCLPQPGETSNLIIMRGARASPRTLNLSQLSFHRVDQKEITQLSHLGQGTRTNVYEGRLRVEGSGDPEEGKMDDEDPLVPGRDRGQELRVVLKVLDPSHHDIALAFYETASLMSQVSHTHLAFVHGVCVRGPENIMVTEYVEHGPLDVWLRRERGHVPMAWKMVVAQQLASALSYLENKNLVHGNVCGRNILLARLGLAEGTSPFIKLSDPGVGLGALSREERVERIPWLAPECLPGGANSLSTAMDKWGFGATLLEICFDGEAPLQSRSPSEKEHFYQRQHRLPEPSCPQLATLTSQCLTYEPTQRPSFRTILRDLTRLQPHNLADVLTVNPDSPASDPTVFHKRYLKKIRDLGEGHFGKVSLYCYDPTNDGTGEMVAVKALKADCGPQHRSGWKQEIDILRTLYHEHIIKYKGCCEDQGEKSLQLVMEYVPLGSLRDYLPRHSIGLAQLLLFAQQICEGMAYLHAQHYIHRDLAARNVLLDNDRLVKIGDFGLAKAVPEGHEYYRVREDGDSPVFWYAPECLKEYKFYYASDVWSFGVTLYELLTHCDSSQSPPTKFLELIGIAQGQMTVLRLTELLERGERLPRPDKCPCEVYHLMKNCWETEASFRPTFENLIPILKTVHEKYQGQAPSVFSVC

Compound | IC50 (TYK2) [µM] | IC50 (JAK1) [µM] | IC50 (JAK2) [µM]
OC[C@@H](Nc1nc(Nc2cn[nH]c2)ncc1Cl)c1ccccc1F [Compound 79] | 1 to 10 | 0.1 to 1 | 1 to 10
OCCn1cc(Nc2ncc(Cl)c(NC(CO)Cc3ccccc3)n2)cn1 (stereo not drawn) [Compound 19] | 1 to 10 | 0.1 to 1 | 1 to 10
Cn1cc(Nc2ncc(Cl)c(N[C@H](CO)c3ccccc3F)n2)cn1 [Compound 58] | 1 to 10 | 1 to 10 | 1 to 10
COC(=O)C(Nc1nc(Nc2cnn(CCO)c2)ncc1Cl)c1ccccc1 (stereo not drawn) [Compound 15] | 1 to 10 | 1 to 10 | ≥ 10
O=C(O)Cn1cc(Nc2ncc(Cl)c(N[C@H](CO)c3ccccc3)n2)cn1 [Compound 24] | 1 to 10 | 1 to 10 | ≥ 10
CNC(=O)Cn1cc(Nc2ncc(Cl)c(N[C@H](CO)c3cccnc3)n2)cn1 [Compound 170] | 1 to 10 | 1 to 10 | 1 to 10
O=C(O)C(Nc1nc(Nc2cnn(CCO)c2)ncc1Cl)c1ccccc1 (stereo not drawn) [Compound 17] | ≥ 10 | > 10 | ≥ 10
OCCn1ccc(Nc2ncc(Cl)c(NC(CO)c3ccccc3F)n2)n1 (stereo not drawn) [Compound 50] | ≥ 10 | > 10 | ≥ 10
O=C([C@@H](Nc1nc(Nc2cnn(CCO)c2)ncc1Cl)c1ccccc1)N1CCCCC1 [Compound 51] | ≥ 10 | > 10 | ≥ 10
Cn1cc(Nc2ncc(Cl)c(NC(CO)c3c(F)cccc3F)n2)cn1 (stereo not drawn) [Compound 44] | 1 to 10 | 1 to 10 | 1 to 10
COc1ccccc1[C@@H](CO)Nc1nc(Nc2cnn(C)c2)ncc1Cl [Compound 74] | 1 to 10 | 0.1 to 1 | 1 to 10
Cn1cc(Nc2ncc(Cl)c(NC(CO)Cc3ccccc3)n2)cn1 (stereo not drawn) [Compound 14] | 1 to 10 | 1 to 10 | 1 to 10
CNC(=O)[C@@H](Nc1nc(Nc2cnn(C)c2)ncc1Cl)c1ccccc1 [Compound 20] | 1 to 10 | 1 to 10 | ≥ 10
OCCCn1cc(Nc2ncc(Cl)c(NC(CO)c3ccccc3F)n2)cn1 (stereo not drawn) [Compound 64] | 1 to 10 | 1 to 10 | 1 to 10
CNC(=O)Cn1cc(Nc2ncc(Cl)c(N[C@H](CCO)c3ccccc3)n2)cn1 [Compound 66] | 1 to 10 | 1 to 10 | 1 to 10
O=C([C@@H](Nc1nc(Nc2cnn(CCO)c2)ncc1Cl)c1ccccc1)N1CCCC1 [Compound 35] | 1 to 10 | 1 to 10 | 1 to 10
COC[C@@H](Nc1nc(Nc2cnn(C)c2)ncc1Cl)c1ccccc1 [Compound 55] | ≥ 10 | > 10 | ≥ 10

Next, values leading:

IC50 (TYK2) [µM] | IC50 (JAK1) [µM] | IC50 (JAK2) [µM] | Compound
0.1 to 1 | 0.1 to 1 | 0.1 to 1 | OCCn1cc(Nc2ncc(Cl)c(NC(CO)c3cccc(F)c3)n2)cn1 (stereo not drawn) [Compound 39]
0.1 to 1 | 1 to 10 | 1 to 10 | Cc1cnc(Nc2cnn(CC(=O)N3CCOCC3)c2)nc1NC(CO)c1c(F)cccc1F (stereo not drawn) [Compound 169]
1 to 10 | 1 to 10 | ≥ 10 | OCCn1cc(Nc2ncc(Cl)c(N[C@@H](CO)c3ccccc3)n2)cn1 [Compound 63]
1 to 10 | 1 to 10 | ≥ 10 | CCNC(=O)[C@@H](Nc1nc(Nc2cnn(CCO)c2)ncc1Cl)c1ccccc1 [Compound 27]
1 to 10 | 1 to 10 | 1 to 10 | Cn1cc(Nc2ncc(Cl)c(NC(CO)c3ccccc3F)n2)cn1 (stereo not drawn) [Compound 37]
1 to 10 | > 10 | ≥ 10 | Cn1cc(Nc2ncc(Cl)c(N[C@@H](CO)c3ccccc3)n2)cn1 [Compound 54]
0.1 to 1 | 0.1 to 1 | 1 to 10 | OCCn1cc(Nc2ncc(Cl)c(N[C@H](CO)c3ccccc3F)n2)cn1 [Compound 77]
0.1 to 1 | 0.1 to 1 | 1 to 10 | NC(=O)Cn1cc(Nc2ncc(Cl)c(N[C@H](CO)c3ccccn3)n2)cn1 [Compound 81]
